This note sets out measurements from patent US20140031278A1, “Novel Glucagon Analogues” (NOVO NORDISK A/S, priority 2011, published 2014).

Each structure is given as a SMILES string. *1 amine or outer side, *2 acyl side, *3 side chain or, on linkers, in order; H or OH if unused. Where a SMILES comes first, the peptide text is derived from it. Side-chain parts run from the residue outwards. The star is where a group is joined. γGlu = O=C(O)[C@H](CCC(=O)[*:2])N[*:1]; Suc = O=C(CCC(=O)[*:2])[*:1]; Butyryl = CCCC(=O)*

For the test, the target named is T1, glucagon receptor (Homo sapiens, UniProt P47871).
T1 construct: expressed in transfected cells
The test can be described thus: Assay (I) Glucagon activity (cAMP biosensor, FLIPR). The format is cell-based. The following applies: HEK-293 cells with cloned glucagon receptor and cAMP biosensor; end point after 6 minutes. The method, boiled down:
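HEK-293 cells expressing glucagon receptor with membrane cAMP biosensor (ACTOne), calcium-dye loaded with probenecid and a PDE inhibitor.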

T1 sequence (P47871 26-477): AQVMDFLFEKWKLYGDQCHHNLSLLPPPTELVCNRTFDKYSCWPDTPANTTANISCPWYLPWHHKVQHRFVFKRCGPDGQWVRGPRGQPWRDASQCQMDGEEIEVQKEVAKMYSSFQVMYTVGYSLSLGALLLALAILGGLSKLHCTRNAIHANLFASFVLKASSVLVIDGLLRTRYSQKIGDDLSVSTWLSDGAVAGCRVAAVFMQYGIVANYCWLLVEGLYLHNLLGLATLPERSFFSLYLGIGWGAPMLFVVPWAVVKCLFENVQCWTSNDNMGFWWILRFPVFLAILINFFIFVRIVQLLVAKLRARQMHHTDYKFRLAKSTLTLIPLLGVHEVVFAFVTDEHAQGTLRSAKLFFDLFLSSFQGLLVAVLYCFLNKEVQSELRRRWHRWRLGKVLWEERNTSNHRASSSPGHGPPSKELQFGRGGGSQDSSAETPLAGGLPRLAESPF

By EC50 is commonly meant the concentration giving half of the maximal effect. For the compound `CCCC(=O)N[C@@H](CCC(=O)N[C@@H](CCC(=O)N[C@@H](CCC(=O)N[C@@H](CCC(=O)NCCCC[C@H](NC(=O)[C@@H](NC(=O)[C@H](Cc1ccccc1)NC(=O)[C@H](CC(=O)O)NC(=O)[C@H](C)NC(=O)[C@H](C)NC(=O)[C@H](CCCNC(=N)N)NC(=O)[C@H](CCCNC(=N)N)NC(=O)[C@H](CC(C)C)NC(=O)[C@H](CC(=O)O)NC(=O)[C@H](CC(C)C)NC(=O)[C@H](Cc1ccc(O)cc1)NC(=O)[C@H](CCCNC(=N)N)NC(=O)[C@H](CO)NC(=O)[C@H](Cc1ccc(O)cc1)NC(=O)[C@H](CC(=O)O)NC(=O)[C@H](CO)NC(=O)[C@@H](NC(=O)[C@H](Cc1ccccc1)NC(=O)[C@@H](NC(=O)CNC(=O)[C@H](CCC(N)=O)NC(=O)[C@H](CO)NC(=O)[C@@H](N)Cc1c[nH]cn1)[C@@H](C)O)[C@@H](C)O)C(C)C)C(=O)N[C@@H](Cc1c[nH]c2ccccc12)C(=O)N[C@@H](CC(C)C)C(=O)N[C@@H](CC(C)C)C(=O)N[C@@H](CO)C(=O)N[C@H](C(=O)O)[C@@H](C)O)C(=O)O)C(=O)O)C(=O)O)C(=O)O` [Example 65, N^ε24-[(4S)-4-[[(4S)-4-[[(4S)-4-[[(4S)-4-(butanoylamino)-4-carboxybutanoyl]amino]-4-carboxybutanoyl]amino]-4-carboxybutanoyl]amino]-4-carboxybutanoyl]-[Arg^12,Leu^16,Ala^20,Lys^24,Leu^27,Ser^28]-Glucagon] (H-HSQGTFTSDYSRYLDLRRAADFVK([γGlu-γGlu-γGlu-γGlu-Butyryl])WLLST-OH), the response was half-maximal at 0.021 nM (EC50). As to `CC(=O)N[C@@H](CCC(=O)N[C@@H](CCC(=O)N[C@@H](CCC(=O)N[C@@H](CCC(=O)NCCCC[C@H](NC(=O)[C@@H](NC(=O)[C@H](Cc1ccccc1)NC(=O)[C@H](CC(=O)O)NC(=O)[C@H](CCC(=O)O)NC(=O)[C@H](C)NC(=O)[C@H](CCCNC(=N)N)NC(=O)[C@H](CCCNC(=N)N)NC(=O)[C@H](CC(C)C)NC(=O)[C@H](CC(=O)O)NC(=O)[C@H](CC(C)C)NC(=O)[C@H](Cc1ccc(O)cc1)NC(=O)[C@H](CCCNC(=N)N)NC(=O)[C@H](CO)NC(=O)[C@H](Cc1ccc(O)cc1)NC(=O)[C@H](CC(=O)O)NC(=O)[C@H](CO)NC(=O)[C@@H](NC(=O)[C@H](Cc1ccccc1)NC(=O)[C@@H](NC(=O)CNC(=O)[C@H](CCC(N)=O)NC(=O)[C@H](CO)NC(=O)[C@@H](N)Cc1c[nH]cn1)[C@@H](C)O)[C@@H](C)O)C(C)C)C(=O)N[C@@H](Cc1c[nH]c2ccccc12)C(=O)N[C@@H](CC(C)C)C(=O)N[C@@H](CC(C)C)C(=O)N[C@@H](CO)C(=O)N[C@H](C(=O)O)[C@@H](C)O)C(=O)O)C(=O)O)C(=O)O)C(=O)O` [Example 57, N^ε24-[(4S)-4-[[(4S)-4-[[(4S)-4-[[(4S)-4-acetamido-4-carboxybutanoyl]amino]-4-carboxybutanoyl]amino]-4-carboxybutanoyl]amino]-4-carboxybutanoyl]-[Arg^12,Leu^16,Glu^20,Lys^24,Leu^27,Ser^28]-Glucagon] (H-HSQGTFTSDYSRYLDLRRAEDFVK([γGlu-γGlu-γGlu-γGlu-Ac])WLLST-OH), the EC50 was 0.017 nM.

The compound `CC(=O)N[C@@H](CCC(=O)N[C@@H](CCC(=O)N[C@@H](CCC(=O)N[C@@H](CCC(=O)NCCCC[C@H](NC(=O)[C@@H](NC(=O)[C@H](Cc1ccccc1)NC(=O)[C@H](CC(=O)O)NC(=O)[C@H](CCC(N)=O)NC(=O)[C@H](C)NC(=O)[C@H](CCCNC(=N)N)NC(=O)[C@H](CCCNC(=N)N)NC(=O)[C@H](CO)NC(=O)[C@H](CC(=O)O)NC(=O)[C@H](CC(C)C)NC(=O)[C@H](Cc1ccc(O)cc1)NC(=O)[C@H](CCCCN)NC(=O)[C@H](CO)NC(=O)[C@H](Cc1ccc(O)cc1)NC(=O)[C@H](CC(=O)O)NC(=O)[C@H](CO)NC(=O)[C@@H](NC(=O)[C@H](Cc1ccccc1)NC(=O)[C@@H](NC(=O)CNC(=O)[C@H](Cc1c[nH]cn1)NC(=O)[C@H](CO)NC(=O)[C@@H](N)Cc1c[nH]cn1)[C@@H](C)O)[C@@H](C)O)C(C)C)C(=O)N[C@@H](Cc1c[nH]c2ccccc12)C(=O)N[C@@H](CC(C)C)C(=O)N[C@@H](CC(C)C)C(=O)N[C@@H](CC(N)=O)C(=O)N[C@H](C(=O)O)[C@@H](C)O)C(=O)O)C(=O)O)C(=O)O)C(=O)O` [Example 19, N^ε24-[(4S)-4-[[(4S)-4-[[(4S)-4-[[(4S)-4-acetamido-4-carboxybutanoyl]amino]-4-carboxybutanoyl]amino]-4-carboxybutanoyl]amino]-4-carboxybutanoyl]-[His3,Lys24,Leu27]-Glucagon] had an EC50 of 0.0145 nM. Compound `CC(=O)N[C@@H](CCC(=O)N[C@@H](CCC(=O)N[C@@H](CCC(=O)N[C@@H](CCC(=O)NCCCC[C@H](NC(=O)[C@@H](NC(=O)[C@H](Cc1ccccc1)NC(=O)[C@H](CC(=O)O)NC(=O)[C@H](CCC(N)=O)NC(=O)[C@H](C)NC(=O)[C@H](CCCNC(=N)N)NC(=O)[C@H](CCCNC(=N)N)NC(=O)[C@H](CO)NC(=O)[C@H](CCC(=O)O)NC(=O)[C@H](CC(C)C)NC(=O)[C@H](Cc1ccc(O)cc1)NC(=O)[C@H](CCCCN)NC(=O)[C@H](CO)NC(=O)[C@@H](NC(=O)[C@H](CC(=O)O)NC(=O)[C@H](CO)NC(=O)[C@@H](NC(=O)[C@H](Cc1ccccc1)NC(=O)[C@@H](NC(=O)CNC(=O)[C@H](CCC(N)=O)NC(=O)[C@H](CO)NC(=O)[C@@H](N)Cc1c[nH]cn1)[C@@H](C)O)[C@@H](C)O)C(C)C)C(C)C)C(=O)N[C@@H](Cc1c[nH]c2ccccc12)C(=O)N[C@@H](CC(C)C)C(=O)N[C@@H](CC(C)C)C(=O)N[C@@H](CO)C(=O)N[C@H](C(=O)O)[C@@H](C)O)C(=O)O)C(=O)O)C(=O)O)C(=O)O` [Example 44, N^ε24-[(4S)-4-[[(4S)-4-[[(4S)-4-[[(4S)-4-acetamido-4-carboxybutanoyl]amino]-4-carboxybutanoyl]amino]-4-carboxybutanoyl]amino]-4-carboxybutanoyl]-[Val^10,Glu^15,Lys^24,Leu^27,Ser^28]-Glucagon] (H-HSQGTFTSDVSKYLESRRAQDFVK([γGlu-γGlu-γGlu-γGlu-Ac])WLLST-OH) registered an EC50 of 0.075 nM. For `CC(C)C[C@H](NC(=O)[C@H](Cc1ccc(O)cc1)NC(=O)[C@H](CCCCN)NC(=O)[C@H](CO)NC(=O)[C@H](Cc1ccc(O)cc1)NC(=O)[C@H](CC(=O)O)NC(=O)[C@H](CO)NC(=O)[C@@H](NC(=O)[C@H](Cc1ccccc1)NC(=O)[C@@H](NC(=O)CNC(=O)[C@H](Cc1c[nH]cn1)NC(=O)[C@H](CO)NC(=O)[C@@H](N)Cc1c[nH]cn1)[C@@H](C)O)[C@@H](C)O)C(=O)N[C@@H](CCC(=O)O)C(=O)N[C@@H](CO)C(=O)N[C@@H](CCCNC(=N)N)C(=O)N[C@@H](CCCNC(=N)N)C(=O)N[C@@H](C)C(=O)N[C@@H](C)C(=O)N[C@@H](CC(=O)O)C(=O)N[C@@H](Cc1ccccc1)C(=O)N[C@H](C(=O)N[C@@H](CCCCNC(=O)CC[C@H](NC(=O)CC[C@H](NC(=O)CC[C@H](NC(=O)CC[C@H](N)C(=O)O)C(=O)O)C(=O)O)C(=O)O)C(=O)N[C@@H](Cc1c[nH]c2ccccc12)C(=O)N[C@@H](CC(C)C)C(=O)N[C@@H](CC(C)C)C(=O)N[C@@H](CO)C(=O)N[C@H](C(=O)O)[C@@H](C)O)C(C)C` [Example 5, N^ε24-[(4S)-4-[[(4S)-4-[[(4S)-4-[[(4S)-4-amino-4-carboxybutanoyl]amino]-4-carboxybutanoyl]amino]-4-carboxybutanoyl]amino]-4-carboxybutanoyl]-[His3,Glu15,Ala20,Lys24,Leu27,Ser28]-Glucagon] (H-HSHGTFTSDYSKYLESRRAADFVK([γGlu-γGlu-γGlu-γGlu])WLLST-OH) the value was 0.0563 nM; for `CC(C)C[C@H](NC(=O)[C@H](CC(=O)O)NC(=O)[C@H](CC(C)C)NC(=O)[C@H](Cc1ccc(O)cc1)NC(=O)[C@H](CCCNC(=N)N)NC(=O)[C@H](CO)NC(=O)[C@H](Cc1ccc(O)cc1)NC(=O)[C@H](CC(=O)O)NC(=O)[C@H](CO)NC(=O)[C@@H](NC(=O)[C@H](Cc1ccccc1)NC(=O)[C@@H](NC(=O)CNC(=O)[C@H](CCC(N)=O)NC(=O)[C@H](CO)NC(=O)[C@@H](N)Cc1c[nH]cn1)[C@@H](C)O)[C@@H](C)O)C(=O)N[C@@H](CCCNC(=N)N)C(=O)N[C@@H](CCCNC(=N)N)C(=O)N[C@@H](C)C(=O)N[C@@H](C)C(=O)N[C@@H](CC(=O)O)C(=O)N[C@@H](Cc1ccccc1)C(=O)N[C@H](C(=O)N[C@@H](CCCCNC(=O)CC[C@H](NC(=O)CC[C@H](NC(=O)CC[C@H](NC(=O)CC[C@H](NC(=O)CCC(=O)O)C(=O)O)C(=O)O)C(=O)O)C(=O)O)C(=O)N[C@@H](Cc1c[nH]c2ccccc12)C(=O)N[C@@H](CC(C)C)C(=O)N[C@@H](CC(C)C)C(=O)N[C@@H](CO)C(=O)N[C@H](C(=O)O)[C@@H](C)O)C(C)C` [Example 66, N^ε24-[(4S)-4-carboxy-4-[[(4S)-4-carboxy-4-[[(4S)-4-carboxy-4-[[(4S)-4-carboxy-4-(3-carboxypropanoylamino)butanoyl]amino]butanoyl]amino]butanoyl]amino]butanoyl]-[Arg^12,Leu^16,Ala^20,Lys^24,Leu^27,Ser^28]-Glucagon] (H-HSQGTFTSDYSRYLDLRRAADFVK([γGlu-γGlu-γGlu-γGlu-Suc])WLLST-OH), 0.02 nM. `CC(=O)N[C@@H](CCC(=O)N[C@@H](CCC(=O)N[C@@H](CCC(=O)N[C@@H](CCC(=O)NCCCC[C@H](NC(=O)[C@@H](NC(=O)[C@H](Cc1ccccc1)NC(=O)[C@H](CC(=O)O)NC(=O)[C@H](CCC(N)=O)NC(=O)[C@H](C)NC(=O)[C@H](CCCNC(=N)N)NC(=O)[C@H](CCCNC(=N)N)NC(=O)[C@H](CC(C)C)NC(=O)[C@H](CC(=O)O)NC(=O)[C@H](CC(C)C)NC(=O)[C@H](Cc1ccc(O)cc1)NC(=O)[C@H](CCCNC(=N)N)NC(=O)[C@H](CO)NC(=O)[C@H](Cc1ccc(O)cc1)NC(=O)[C@H](CC(=O)O)NC(=O)[C@H](CO)NC(=O)[C@@H](NC(=O)[C@H](Cc1ccccc1)NC(=O)[C@@H](NC(=O)CNC(=O)[C@H](CCC(N)=O)NC(=O)[C@H](CO)NC(=O)[C@@H](N)Cc1c[nH]cn1)[C@@H](C)O)[C@@H](C)O)C(C)C)C(=O)N[C@@H](Cc1c[nH]c2ccccc12)C(=O)N[C@@H](CC(C)C)C(=O)N[C@@H](CC(C)C)C(=O)N[C@@H](CO)C(=O)N[C@H](C(=O)O)[C@@H](C)O)C(=O)O)C(=O)O)C(=O)O)C(=O)O` [Example 39, N^ε24-[(4S)-4-[[(4S)-4-[[(4S)-4-[[(4S)-4-acetamido-4-carboxybutanoyl]amino]-4-carboxybutanoyl]amino]-4-carboxybutanoyl]amino]-4-carboxybutanoyl]-[Arg12,Leu16,Lys24,Leu27,Ser28]-Glucagon] (H-HSQGTFTSDYSRYLDLRRAQDFVK([γGlu-γGlu-γGlu-γGlu-Ac])WLLST-OH) registered an EC50 of 0.003 nM. Against the preceding compound, the EC50 is about 6.7-fold lower.
